{"source": "patent US20230356105A1", "about": "“TETRAAZADODECANE BASED CHELATING AGENTS FOR SEPARATION OF RARE EARTH ELEMENTS AND METHOD THEREFOR” (Ustav Organicke Chemie a Biochemie AV CR V.V.I., priority 2020, published 2023)", "key": {"[1]": {"assay": "Separation of binary mixture of rare-earth metals by precipitation using L1, MOPS pH 8.5 (Example 8)", "format": "physicochemical", "conditions": "supernatant", "protocol": "Analogous to Example 7), the well plate was then centrifuged and concentrations of the metals were determined using ICP-OES. The resulting concentrations of both metals in the supernatants and their ratios are summarized in […]"}, "[2]": {"assay": "Separation of Tb/Dy mixture by repeated precipitation using L5 and α-HIBA (Example 20)", "format": "physicochemical", "conditions": "for Precipitate concentration [mM] Dy / precipitate concentration [mm] Tb: dissolved to 200 μL", "protocol": "Analogous to Example 19, three reaction mixtures were prepared with the following changes: the rare-earth elements were Tb and Dy, and 0.5 molar equivalents (5 mM reaction concentration) of α-HIBA were used. Otherwise, the experiment was run analogously to Example 19.\nThe resulting absolute concentrations of both metals in the supernatants and precipitates, as well as calculated values of the separation factor Dy/Tb according to the formula from Example 11), are summarized in Table 14. […] The average separation factor was 2.32."}}, "note": "Where “and” joins values, the source holds several entries; their conditions need not be identical. Equal entries are not always repeated.", "data": [{"smiles": "O=C(O)CN1CCN(CC(=O)O)CCN(Cc2ccccc2)CCN(CC(=O)O)CC1", "note": "[L1, 2,2′,2″-(10-benzyl-1,4,7,10-tetraazacyclododecane-1,4,7-triyl)triacetic Acid]", "values": [{"measurement": "[mM] M1", "setting": "[1]; M1=Ce, M2=Er", "result": 0.280, "unit": "mM"}, {"measurement": "[mM] M1", "setting": "[1]; M1=Ce, M2=Tm", "result": 0.425, "unit": "mM"}, {"measurement": "[mM] Tm", "setting": "[1]; M1=Ce, M2=Tm", "result": 2.035, "unit": "mM"}, {"measurement": "M1/Er", "setting": "[1]; M1=Ce", "result": 0.51}, {"measurement": "[mM] M1", "setting": "[1]; M1=Dy, M2=Er", "result": 0.338, "unit": "mM"}, {"measurement": "[mM] M1", "setting": "[1]; M1=Dy, M2=Tm", "result": 0.362, "unit": "mM"}, {"measurement": "[mM] Tm", "setting": "[1]; M1=Dy, M2=Tm", "result": 2.382, "unit": "mM"}, {"measurement": "M1/Er", "setting": "[1]; M1=Dy", "result": 0.34}, {"measurement": "[mM] M1", "setting": "[1]; M1=Er, M2=Er", "result": 4.969, "unit": "mM"}, {"measurement": "[mM] M1", "setting": "[1]; M1=Er, M2=Tm", "result": 2.759, "unit": "mM"}, {"measurement": "[mM] Tm", "setting": "[1]; M1=Er, M2=Tm", "result": 3.368, "unit": "mM"}, {"measurement": "M1/Er", "setting": "[1]; M1=Er", "result": 1.00}, {"measurement": "[mM] Er", "setting": "[1]; M1=Eu, M2=Er", "result": 0.680, "unit": "mM"}, {"measurement": "[mM] M1", "setting": "[1]; M1=Eu, M2=Er", "result": 0.244, "unit": "mM"}, {"measurement": "[mM] M1", "setting": "[1]; M1=Eu, M2=Tm", "result": 0.244, "unit": "mM"}, {"measurement": "[mM] Tm", "setting": "[1]; M1=Eu, M2=Tm", "result": 2.091, "unit": "mM"}, {"measurement": "M1/Er", "setting": "[1]; M1=Eu", "result": 0.36}, {"measurement": "[mM] Er", "setting": "[1]; M1=Gd, M2=Er", "result": 0.972, "unit": "mM"}, {"measurement": "[mM] M1", "setting": "[1]; M1=Gd, M2=Er", "result": 0.402, "unit": "mM"}, {"measurement": "[mM] M1", "setting": "[1]; M1=Gd, M2=Tm", "result": 0.254, "unit": "mM"}, {"measurement": "[mM] Tm", "setting": "[1]; M1=Gd, M2=Tm", "result": 1.814, "unit": "mM"}, {"measurement": "M1/Er", "setting": "[1]; M1=Gd", "result": 0.41}, {"measurement": "[mM] M1", "setting": "[1]; M1=Ho, M2=Er", "result": 0.496, "unit": "mM"}, {"measurement": "[mM] M1", "setting": "[1]; M1=Ho, M2=Tm", "result": 0.521, "unit": "mM"}, {"measurement": "[mM] Tm", "setting": "[1]; M1=Ho, M2=Tm", "result": 2.329, "unit": "mM"}, {"measurement": "M1/Er", "setting": "[1]; M1=Ho", "result": 0.60}, {"measurement": "[mM] M1", "setting": "[1]; M1=La, M2=Er", "result": 0.368, "unit": "mM"}, {"measurement": "[mM] M1", "setting": "[1]; M1=La, M2=Tm", "result": 0.616, "unit": "mM"}, {"measurement": "[mM] Tm", "setting": "[1]; M1=La, M2=Tm", "result": 2.425, "unit": "mM"}, {"measurement": "M1/Er", "setting": "[1]; M1=La", "result": 0.57}, {"measurement": "[mM] M1", "setting": "[1]; M1=Lu, M2=Er", "result": 7.607, "unit": "mM"}, {"measurement": "[mM] M1", "setting": "[1]; M1=Lu, M2=Tm", "result": 7.337, "unit": "mM"}, {"measurement": "[mM] Tm", "setting": "[1]; M1=Lu, M2=Tm", "result": 4.588, "unit": "mM"}, {"measurement": "M1/Er", "setting": "[1]; M1=Lu", "result": 1.67}, {"measurement": "[mM] Er", "setting": "[1]; M1=Nd, M2=Er", "result": 0.692, "unit": "mM"}, {"measurement": "[mM] M1", "setting": "[1]; M1=Nd, M2=Er", "result": 0.280, "unit": "mM"}, {"measurement": "[mM] M1", "setting": "[1]; M1=Nd, M2=Tm", "result": 0.315, "unit": "mM"}, {"measurement": "[mM] Tm", "setting": "[1]; M1=Nd, M2=Tm", "result": 1.892, "unit": "mM"}, {"measurement": "M1/Er", "setting": "[1]; M1=Nd", "result": 0.40}, {"measurement": "[mM] M1", "setting": "[1]; M1=Pr, M2=Er", "result": 0.210, "unit": "mM"}, {"measurement": "[mM] M1", "setting": "[1]; M1=Pr, M2=Tm", "result": 0.298, "unit": "mM"}, {"measurement": "[mM] Tm", "setting": "[1]; M1=Pr, M2=Tm", "result": 2.016, "unit": "mM"}, {"measurement": "M1/Er", "setting": "[1]; M1=Pr", "result": 0.32}, {"measurement": "[mM] M1", "setting": "[1]; M1=Sc, M2=Er", "result": 5.191, "unit": "mM"}, {"measurement": "[mM] M1", "setting": "[1]; M1=Sc, M2=Tm", "result": 5.087, "unit": "mM"}, {"measurement": "[mM] Tm", "setting": "[1]; M1=Sc, M2=Tm", "result": 4.448, "unit": "mM"}, {"measurement": "M1/Er", "setting": "[1]; M1=Sc", "result": 1.16}, {"measurement": "[mM] Er", "setting": "[1]; M1=Sm, M2=Er", "result": 0.734, "unit": "mM"}, {"measurement": "[mM] M1", "setting": "[1]; M1=Sm, M2=Er", "result": 0.197, "unit": "mM"}, {"measurement": "[mM] M1", "setting": "[1]; M1=Sm, M2=Tm", "result": 0.218, "unit": "mM"}, {"measurement": "[mM] Tm", "setting": "[1]; M1=Sm, M2=Tm", "result": 2.090, "unit": "mM"}, {"measurement": "M1/Er", "setting": "[1]; M1=Sm", "result": 0.27}, {"measurement": "[mM] M1", "setting": "[1]; M1=Tb, M2=Er", "result": 0.225, "unit": "mM"}, {"measurement": "[mM] M1", "setting": "[1]; M1=Tb, M2=Tm", "result": 0.225, "unit": "mM"}, {"measurement": "[mM] Tm", "setting": "[1]; M1=Tb, M2=Tm", "result": 2.342, "unit": "mM"}, {"measurement": "M1/Er", "setting": "[1]; M1=Tb", "result": 0.28}, {"measurement": "[mM] M1", "setting": "[1]; M1=Tm, M2=Er", "result": 3.971, "unit": "mM"}, {"measurement": "[mM] M1", "setting": "[1]; M1=Tm, M2=Tm", "result": 4.779, "unit": "mM"}, {"measurement": "[mM] Tm", "setting": "[1]; M1=Tm, M2=Tm", "result": 4.779, "unit": "mM"}, {"measurement": "M1/Er", "setting": "[1]; M1=Tm", "result": 1.73}, {"measurement": "[mM] M1", "setting": "[1]; M1=Y, M2=Er", "result": 0.503, "unit": "mM"}, {"measurement": "[mM] M1", "setting": "[1]; M1=Y, M2=Tm", "result": 0.480, "unit": "mM"}, {"measurement": "[mM] Tm", "setting": "[1]; M1=Y, M2=Tm", "result": 2.367, "unit": "mM"}, {"measurement": "M1/Er", "setting": "[1]; M1=Y", "result": 0.56}, {"measurement": "[mM] M1", "setting": "[1]; M1=Yb, M2=Er", "result": 5.400, "unit": "mM"}, {"measurement": "[mM] M1", "setting": "[1]; M1=Yb, M2=Tm", "result": 5.477, "unit": "mM"}, {"measurement": "[mM] Tm", "setting": "[1]; M1=Yb, M2=Tm", "result": 4.598, "unit": "mM"}, {"measurement": "M1/Er", "setting": "[1]; M1=Yb", "result": 1.25}]}, {"smiles": "O=C(O)CN1CCN(CC(=O)O)CCN(Cc2cccc3ccccc23)CCN(CC(=O)O)CC1", "note": "[L5, 2,2′,2″-(10-(naphthalene-1-ylmethyl)-1,4,7,10-tetraazacyklododekane-1,4,7-triyl)triacetic acid]", "values": [{"measurement": "Supernatant concentration [mM] Dy", "setting": "[2]; A, 1st precipitation", "result": "1.41 mM and 1.47 mM and 1.59 mM"}, {"measurement": "Supernatant concentration [mM] Tb", "setting": "[2]; A, 1st precipitation, 5 mM α-HIBA", "result": "0.77 mM and 0.86 mM"}, {"measurement": "Supernatant concentration [mM] Tb", "setting": "[2]; A, 1st precipitation, 5 mM α-HIBA, mean", "result": 0.82, "unit": "mM"}, {"measurement": "Precipitate concentration [mM] Dy", "setting": "[2]; A, 1st precipitation", "result": "3.02 mM and 2.88 mM and 2.92 mM"}, {"measurement": "Precipitate concentration [mM] Dy", "setting": "[2]; A, 1st precipitation, mean", "result": 2.94, "unit": "mM"}, {"measurement": "precipitate concentration [mm] Tb", "setting": "[2]; A, 1st precipitation, mean", "result": 3.74, "unit": "mM"}, {"measurement": "Supernatant concentration [mM] Dy", "setting": "[2]; A, 1st precipitation, mean", "result": 1.49, "unit": "mM"}, {"measurement": "Supernatant concentration [mM] Dy", "setting": "[2]; B, 2nd precipitation", "result": "1.27 mM and 1.30 mM and 1.26 mM"}, {"measurement": "Supernatant concentration [mM] Tb", "setting": "[2]; B, 2nd precipitation", "result": "0.84 mM and 0.90 mM and 0.79 mM"}, {"measurement": "Precipitate concentration [mM] Dy", "setting": "[2]; B, 2nd precipitation", "result": "2.65 mM and 2.72 mM and 2.76 mM"}, {"measurement": "Precipitate concentration [mM] Dy", "setting": "[2]; B, 2nd precipitation, mean", "result": 2.71, "unit": "mM"}, {"measurement": "precipitate concentration [mm] Tb", "setting": "[2]; B, 2nd precipitation, mean", "result": 4.16, "unit": "mM"}, {"measurement": "Supernatant concentration [mM] Dy", "setting": "[2]; C, 3rd precipitation", "result": "1.10 mM and 1.20 mM and 1.08 mM"}, {"measurement": "Supernatant concentration [mM] Tb", "setting": "[2]; C, 3rd precipitation", "result": "0.90 mM and 0.98 mM and 0.83 mM"}, {"measurement": "Precipitate concentration [mM] Dy", "setting": "[2]; C, 3rd precipitation", "result": "2.52 mM and 2.42 mM and 2.72 mM"}, {"measurement": "Precipitate concentration [mM] Dy", "setting": "[2]; C, 3rd precipitation, mean", "result": 2.55, "unit": "mM"}, {"measurement": "precipitate concentration [mm] Tb", "setting": "[2]; C, 3rd precipitation, mean", "result": 4.70, "unit": "mM"}, {"measurement": "Supernatant concentration [mM] Dy", "setting": "[2]; C, 3rd precipitation, mean", "result": 1.13, "unit": "mM"}]}]}
